# Test results: patent publication US20220193439A1, “TREATMENTS FOR EYE INFECTION” (priority 2020, published 2022)
# Several values for one entry are separate records, joined by “and”; a condition that tells them apart may be missing. Equal values may be shown once.
# Legend:
# Assay type in all cases: cell-based
# [1] = system: Pseudomonas aeruginosa; test: riboflavin/UVA laser treatment under normoxic conditions, CFU counting (procedure 2210); conditions: UVA laser
# Procedure: According to an example procedure 2210 shown in FIG. 22A, a dilution factor is determined for Pseudomonas aeruginosa bacteria in step 2210a, and the Pseudomonas aeruginosa is loaded into wells in cell culture plate (e.g., a 96-well plate) in step 2210b. […] In particular, a laser beam of ultraviolet A (UVA) light can be applied with a size of approximately 6.5 mm at 8 Hz. A petri dish is inoculated with the mixture from the wells in step 2210e and incubated (e.g., overnight) in step 2210f. After incubation, the effect of the particular treatment parameters is evaluated by counting colony forming units (CFU) in step 2210g.
# [2] = system: Pseudomonas aeruginosa; test: riboflavin/UVA laser treatment under hyperoxic conditions, CFU counting (procedure 2220); conditions: for average cell death percentage / CFU: UVA laser, hyperoxic
# Procedure: According to an example procedure 2220 shown in FIG. 22B, a dilution factor is determined for Pseudomonas aeruginosa bacteria in step 2220a, and the Pseudomonas aeruginosa is loaded into wells in cell culture plate (e.g., a 96-well plate) in step 2220b. […] In particular, a laser beam of UVA light can be applied with a size of approximately 6.5 mm at 8 Hz. A petri dish is inoculated with the mixture from the wells in step 2220e, and the petri dish is incubated (e.g., overnight) in step 2220f. After incubation, the effect of the treatment parameters is evaluated by counting CFU in step 2220g.
# [3] = system: Pseudomonas aeruginosa; test: riboflavin/UVA LED treatment under normoxic conditions, CFU counting (procedure 2230); conditions: 0.1% riboflavin, UVA LED
# Procedure: According to an example procedure 2230 shown in FIG. 23C, a dilution factor is determined for Pseudomonas aeruginosa bacteria in step 2230a, and the Pseudomonas aeruginosa is loaded into wells in cell culture plate (e.g., a 96-well plate) in step 2230b. […] For example, the LED light source may emit UVA light at a size of approximately 6.5 mm. A petri dish is inoculated with the mixture from the wells in step 2230e, and the petri dish is incubated (e.g., overnight) in step 2230f. After incubation, the effect of the treatment parameters is evaluated by counting CFU in step 2230g.
# [4] = system: Pseudomonas aeruginosa bacteria; test: in vitro study of keratitis treatments, petri dish quadrants scanned with laser beam; conditions: dose approx. 4.5 J/cm^2, irradiance approx. 9 mW/cm^2, ambient air, approx. 70 hours after exposure
# Excerpt: FIG. 13 illustrates an example system 300 for an in vitro study of keratitis treatments. The system 300 includes an illumination system 320 that emits a laser beam that can be scanned across a petri dish containing a sample. The system 300 also includes a UV window 350 that can be selectively employed to transmit UV light in the study. Additionally, the system 300 includes a holder 360 that holds the petri dish. The holder 360 includes tubing to receive and deliver a concentration of O2 to some samples in the study. Furthermore, the system 300 includes a micrometer 370 to determine the position of the holder 360 and thus the petri dish along a vertical axis (z-axis) relative to the illumination system 320.
# FIG. 14A illustrates a petri dish with an example sample 30 for the in vitro study of keratitis treatments employing the system 300. The preparation of the sample 30 involves inoculation with Pseudomonas aeruginosa bacteria (which causes keratitis) and incubation for approximately 48 hours. The resulting bacterial growth in the sample 30 is visible in FIG. 14A. The sample 30 is divided into four quadrants 30a-d to mark areas of the bacterial growth that are exposed to different conditions.
# FIG. 14B illustrates the delivery of the laser beam from the illumination system 320 to selected quadrants of the sample 30. As shown, the laser beam is scanning the second quadrant 30b. […]
# [5] = system: bacterial growth; test: riboflavin solution without photoactivation, bacterial growth
# Excerpt: Studies by the present inventors indicate that the antimicrobial effect depends on UV dose and power.
# [6] = 0.1% riboflavin, 2.5 mW/cm^2, 2.5 J/cm^2, n=3
# [7] = 0.1% riboflavin, 40 mW/cm^2, 40 J/cm^2, n=3
# [8] = 0.1% riboflavin, irradiance 2.5 mW/cm^2, dose 2.5 J/cm^2, replicates 1-3
# [9] = 0.1% riboflavin, irradiance 40 mW/cm^2, dose 40 J/cm^2, replicates 1-3
smiles,measurement,setting,value
Cc1cc2nc3c(=O)[nH]c(=O)nc-3n(C[C@H](O)[C@H](O)[C@H](O)CO)c2cc1C [riboflavin],average cell death percentage,[1]; [6],29.0%
same,average cell death percentage,[1]; [7],67.1%
same,CFU,[1]; [8],82 CFU and 91 CFU (2×)
same,CFU,[1]; [9],21 CFU and 32 CFU and 61 CFU
same,average cell death percentage,"[1]; 0.5% riboflavin, 2.5 mW/cm^2, 2.5 J/cm^2, n=3",−55.4%
same,average cell death percentage,"[1]; 0.5% riboflavin, 40 mW/cm^2, 40 J/cm^2, n=3",26.0%
same,CFU,"[1]; 0.5% riboflavin, irradiance 2.5 mW/cm^2, dose 2.5 J/cm^2, replicates 1-3",86 CFU (2×) and 51 CFU
same,CFU,"[1]; 0.5% riboflavin, irradiance 40 mW/cm^2, dose 40 J/cm^2, replicates 1-3",37 CFU (2×) and 35 CFU
same,average cell death percentage,[2]; [6],16.1%
same,average cell death percentage,[2]; [7],82.7%
same,CFU,[2]; [8],52 CFU and 34 CFU and 12 CFU
same,CFU,[2]; [9],9 CFU and 14 CFU and 4 CFU
same,average cell death percentage,"[2]; 0.2% riboflavin, 20 mW/cm^2, 20 J/cm^2, n=3",58.9%
same,average cell death percentage,"[2]; 0.2% riboflavin, 40 mW/cm^2, 20 J/cm^2, n=3",38.1%
same,CFU,"[2]; 0.2% riboflavin, irradiance 2.5 mW/cm^2, dose 2.5 J/cm^2, replicates 1-3",140 CFU and 101 CFU and 114 CFU
same,CFU,"[2]; 0.2% riboflavin, irradiance 40 mW/cm^2, dose 20 J/cm^2, replicates 1-3",78 CFU and 63 CFU and 77 CFU
same,average cell death percentage,"[2]; 0.22% riboflavin, 2.5 mW/cm^2, 2.5 J/cm^2, n=3",13.9%
same,average cell death percentage,"[2]; 0.22% riboflavin, 40 mW/cm^2, 40 J/cm^2, n=3",76.9%
same,CFU,"[2]; 0.22% riboflavin, irradiance 2.5 mW/cm^2, dose 2.5 J/cm^2, replicates 1-3",218 CFU and 187 CFU and 191 CFU
same,CFU,"[2]; 0.22% riboflavin, irradiance 40 mW/cm^2, dose 40 J/cm^2, replicates 1-3",56 CFU and 83 CFU and 33 CFU
same,effect of supplemental oxygen on bacterial death,[2]; riboflavin photoactivated with a scanning laser,does create additional bacterial death
same,average cell death percentage,"[3]; 8.6 mW/cm^2, 8.6 J/cm^2, n=3",-9.3%
same,average cell death percentage,"[3]; 75 mW/cm^2, 75 J/cm^2, n=3",73.6%
same,CFU,"[3]; irradiance 8.6 mW/cm^2, dose 8.6 J/cm^2, replicates 1-3",156 CFU and 94 CFU and 124 CFU
same,CFU,"[3]; irradiance 75 mW/cm^2, dose 75 J/cm^2, replicates 1-3",26 CFU and 29 CFU and 35 CFU
same,bacteria in quadrants that received riboflavin and photoactivating UV light,[4],effectively eliminated
same,effect of riboflavin solution on its own on bacterial growth,[5],does not directly inhibit bacterial growth
